Among the data in US20240199692A1 (priority 2019, published 2024) are IC50 values, retold here.

Where two headings read alike, the source gives them in different places. *1 amine or outer side, *2 acyl side, *3 side chain or, on linkers, in order; H or OH if unused. Where a SMILES comes first, the peptide text is derived from it. Bridges are numbered along the chain shown (N, C = ends). [ ]: non-standard residue; d: D form. The star is where a group is joined. Phenylsulfonyl(4-anisamido) = COc1ccc(C(=O)Nc2ccc(S(=O)(=O)*)cc2)cc1; Benzoyl(4-O-C6H4-4-CONHMe) = CNC(=O)c1ccc(Oc2ccc(C(=O)*)cc2)cc1; Benzoyl(4-OPh(4-CONH2)) = NC(=O)c1ccc(Oc2ccc(C(=O)*)cc2)cc1; Benzenesulfonyl(4-OPh) = O=S(=O)(c1ccc(Oc2ccccc2)cc1)*; X4 = NC(=O)CCCCNC(=O)c1ccc(Oc2ccc(C(=O)*)cc2)cc1; X3 = O=C(Nc1ccc(S(=O)(=O)*)cc1)c1ccc(OC2CC2)cc1; X2 = CCOc1ccc(C(=O)Nc2ccc(S(=O)(=O)*)cc2)cc1; Benzoyl(4-OPh) = O=C(c1ccc(Oc2ccccc2)cc1)*; d(γGlu) = O=C(O)[C@@H](CCC(=O)[*:2])N[*:1]; NMeY = CN[C@@H](Cc1ccc(O)cc1)C(=O)O; NMeI = CC[C@H](C)[C@H](NC)C(=O)O; NMeE = CN[C@@H](CCC(=O)O)C(=O)O; NMeD = CN[C@@H](CC(=O)O)C(=O)O; NMeL = CN[C@@H](CC(C)C)C(=O)O; NMeV = CN[C@H](C(=O)O)C(C)C; β3hP = O=C(O)C[C@@H]1CCCN1; NMeA = CN[C@@H](C)C(=O)O; Orn = NCCC[C@H](N)C(=O)O; Aze = O=C(O)[C@@H]1CCN1; Dab = NCC[C@H](N)C(=O)O; X18 = NC(=O)[C@H](N)CN*; Ahx = NCCCCCC(=O)O; Ava = NCCCCC(=O)O; GABA = NCCCC(=O)O; βAla = NCCC(=O)O

The experiment addresses T1, MMP2 (Homo sapiens, UniProt P08253).
T1 sequence (P08253 110-660): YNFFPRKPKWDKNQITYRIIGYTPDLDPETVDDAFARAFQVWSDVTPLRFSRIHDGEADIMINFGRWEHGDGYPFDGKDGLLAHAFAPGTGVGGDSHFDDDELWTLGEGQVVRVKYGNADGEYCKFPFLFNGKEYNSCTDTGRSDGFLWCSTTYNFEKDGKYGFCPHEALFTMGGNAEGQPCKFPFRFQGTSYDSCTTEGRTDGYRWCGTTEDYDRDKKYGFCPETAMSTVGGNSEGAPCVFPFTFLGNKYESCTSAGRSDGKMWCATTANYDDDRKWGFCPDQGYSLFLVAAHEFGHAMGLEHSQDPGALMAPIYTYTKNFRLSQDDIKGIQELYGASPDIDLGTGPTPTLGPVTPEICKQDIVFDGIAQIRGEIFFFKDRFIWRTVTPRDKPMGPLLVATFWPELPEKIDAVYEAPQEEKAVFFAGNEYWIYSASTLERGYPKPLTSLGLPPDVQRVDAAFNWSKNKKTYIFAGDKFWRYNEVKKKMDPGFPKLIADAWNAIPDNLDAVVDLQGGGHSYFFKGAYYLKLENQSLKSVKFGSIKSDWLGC
Description: Inhibitory effects on human MMP2 (Method 1), enzyme assay with MOCAc-Pro-Leu-Gly-Leu-A2pr(Dnp)-Ala-Arg-NH2 substrate, 96-well. The experiment is classed as biochemical. The note with it: read-out: Human MMP2, IC50. As for the experimental part: In a reaction solution [50 mmol/L Tris-HCl (pH 7.5), 150 mmol/L NaCl, 10 mmol/L CaCl2, 0.05% Brij L23], 100 μg/mL human recombinant MMP2 enzyme and 1 mmol/L 4-Aminophenylmercuric acetate were mixed together, and reacted at 37° C. for 60 minutes. The human MMP2 activated through the reaction was poured into a 96-well microplate to reach a final concentration of 0.7 or 7 ng/mL.

Where [1] appears, read: Test Example No. 1-1 (Method 1, 96-well microplate).

A word on the IC50: it is the concentration needed to halve the response being measured. Take `CN(C(=O)[C@@H]1CCCCNC(=O)CCNC(=O)CC[C@H](NC(=O)CCCNS(=O)(=O)c2ccc(Oc3ccccc3)cc2)C(=O)N[C@@H](CC(=O)O)C(=O)N[C@@H](CCN)C(=O)N1)[C@@H](CC(=O)O)C(=O)N1CCC[C@H]1CC(N)=O` [Compound 895] ({Benzenesulfonyl(4-OPh)-GABA}-ED[Dab]K[NMeD][β3hP]-NH2; linker 1-4 via βAla (inferred); N-terminus assumed): the half-maximal inhibitory concentration (IC50) (Test Example No. 1-1 (Method 1, 96-well)) is 1.3 nM.

Regarding `CC[C@H](C)[C@@H](C(=O)N1CCC[C@H]1CC(N)=O)N(C)C(=O)[C@H](CC(C)C)NC(=O)[C@H](CCN)NC(=O)CC[C@@H](NS(=O)(=O)c1ccc(NC(=O)c2ccc(OC3CC3)cc2)cc1)C(=O)O` [Compound 700] ({X3-d(γGlu)}-[Dab]L[NMeI][β3hP]-NH2; N-terminus assumed), the IC50 under setting [1] stood at 0.41 nM.

`CC[C@H](C)[C@@H](C(=O)N1CCC[C@H]1CC(N)=O)N(C)C(=O)[C@H](CC(C)C)NC(=O)[C@H](CCN)NC(=O)CC[C@@H](NS(=O)(=O)c1ccc(NC(=O)c2ccc(OC)cc2)cc1)C(=O)O` [Compound 695] ({Phenylsulfonyl(4-anisamido)-d(γGlu)}-[Dab]L[NMeI][β3hP]-NH2; N-terminus assumed): the IC50 under setting [1] came to 0.53 nM.

For `CC[C@H](C)[C@@H](C(=O)N1CCC[C@H]1C(N)=O)N(C)C(=O)[C@H](CC(C)C)NC(=O)[C@H](C)NC(=O)[C@H](CC(=O)O)NC(=O)[C@H](CCC(N)=O)NC(=O)CCCNC(=O)c1ccc(Oc2ccccc2)cc1` [Compound 128] ({Benzoyl(4-OPh)-GABA}-QDAL[NMeI]P-NH2; N-terminus assumed), under setting [1], the IC50 was 0.15 nM.

As for `CCOc1ccc(C(=O)Nc2ccc(S(=O)(=O)N[C@H](CCC(=O)N[C@@H](CCN)C(=O)N[C@@H](CC(C)C)C(=O)N(C)[C@H](C(=O)N3CCC[C@H]3CC(N)=O)[C@@H](C)CC)C(=O)O)cc2)cc1` [Compound 698] ({X2-d(γGlu)}-[Dab]L[NMeI][β3hP]-NH2; N-terminus assumed), under setting [1], the concentration for half-maximal inhibition (IC50) was determined as 0.31 nM.

As to `CC(C)C[C@H](NC(=O)[C@H](CCN)NC(=O)[C@H](CC(=O)O)NC(=O)[C@H](CCC(=O)O)NC(=O)CCCCNC(=O)c1ccc(Oc2ccc(C(=O)NCCCCC(N)=O)cc2)cc1)C(=O)N(C)[C@@H](CCC(=O)O)C(=O)N1CCC[C@H]1CC(N)=O` [Compound 199] ({X4-Ava}-ED[Dab]L[NMeE][β3hP]-NH2; N-terminus assumed), the IC50 under setting [1] worked out at 1.4 nM.

Take `CC(C)C[C@H](NC(=O)[C@H](CCN)NC(=O)[C@H](CC(=O)O)NC(=O)[C@H](CCC(N)=O)NC(=O)[C@@H](N)CCCNC(=O)c1ccc(Oc2ccc(C(N)=O)cc2)cc1)C(=O)N(C)[C@H](C(=O)NC[C@@H](N)C(N)=O)C(C)C` [Compound 536] (H-[Orn](Benzoyl(4-OPh(4-CONH2)))QD[Dab]L[NMeV]-X18): the IC50 under setting [1] turned out to be 0.35 nM.

In the case of `CC[C@H](C)[C@@H](C(=O)N1CCC[C@H]1C(N)=O)N(C)C(=O)[C@H](CC(C)C)NC(=O)[C@H](C)NC(=O)[C@H](CC(=O)O)NC(=O)[C@H](Cc1ccc(O)cc1)N(C)C(=O)CCCNC(=O)c1ccc(Oc2ccccc2)cc1` [Compound 129] ({Benzoyl(4-OPh)-GABA}-[NMeY]DAL[NMeI]P-NH2), the IC50 under setting [1] is 0.46 nM.

With `CC[C@H](C)[C@@H](C(=O)N1CCC[C@H]1C(N)=O)N(C)C(=O)[C@H](CC(C)C)NC(=O)[C@H](C)NC(=O)[C@H](CC(=O)O)NC(=O)[C@H](C)N(C)C(=O)CCCNC(=O)c1ccc(Oc2ccccc2)cc1` [Compound 92] ({Benzoyl(4-OPh)-GABA}-[NMeA]DAL[NMeI]P-NH2; N-terminus assumed), the IC50 under setting [1] is 0.31 nM.

On to `CC[C@H](C)[C@@H](C(=O)N1CCC[C@H]1C(N)=O)N(C)C(=O)[C@H](CC(C)C)NC(=O)[C@H](C)NC(=O)[C@H](CC(=O)O)NC(=O)[C@H](CC(C)C)N(C)C(=O)CCCNC(=O)c1ccc(Oc2ccccc2)cc1` [Compound 120] ({Benzoyl(4-OPh)-GABA}-[NMeL]DAL[NMeI]P-NH2; N-terminus assumed), for which the IC50 under setting [1] came out at 0.21 nM.

On to `CC[C@H](C)[C@@H](C(=O)N1CCC[C@H]1CC(N)=O)N(C)C(=O)[C@H](CC(C)C)NC(=O)[C@H](CCN)NC(=O)[C@H](CC(=O)O)NC(=O)[C@H](CCCCN)NC(=O)CCCCCNC(=O)c1ccc(Oc2ccc(C(=O)NC)cc2)cc1` [Compound 187] ({Benzoyl(4-O-C6H4-4-CONHMe)-Ahx}-KD[Dab]L[NMeI][β3hP]-NH2; N-terminus assumed), for which, under setting [1], the IC50 stood at 2.8 nM.

In the case of `CC[C@H](C)[C@@H](C(=O)N1CCC[C@H]1CC(N)=O)N(C)C(=O)[C@H](CC(C)C)NC(=O)[C@H](CCN)NC(=O)[C@H](CC(=O)O)NC(=O)[C@@H]1CCN1C(=O)CCCNC(=O)c1ccc(Oc2ccccc2)cc1` [Compound 133] ({Benzoyl(4-OPh)-GABA}-[Aze]D[Dab]L[NMeI][β3hP]-NH2; N-terminus assumed), under setting [1], the IC50 turned out to be 0.88 nM.
